Several values for one entry are separate records, joined by “and”; a condition that tells them apart may be missing. Identical values can stand only once.
Assays:
[1] = as reported in TOXNET, National Library of Medicine; cited from earlier work
[2] = test system: Salmonella typhimurium strain TA1535; assay: bacterial reverse mutation test (standard plate incorporation assay); type: cell-based
Experimental: The genotoxic activity of N-(3-chlorophenyl)-N′-(3-chloropropyl)-piperazine has been assessed on histidine-dependent auxotrophic mutants of Salmonella typhimurium strains TA1535, TA1537, TA 98 and TA100, and on tryptophan-dependent mutants of Escherichia coli strain WP2 uvrA (pKM101), exposed to a solution of N-(3-chlorophenyl)-N′-(3-chloropropyl)-piperazine in dimethylsulphoxide (DMSO) and using DMSO as negative control. Two independent mutation tests were performed, both in the presence and absence of a liver microsomal fraction (S9 mix) of rat treated with phenobarbital and 5,6-benzoflavone. Tests were standard plate incorporation assays and performed according to the current regulatory guidelines. A substantial increase in reversion to prototrophy was obtained on strain TA1535 in the presence of S9 mix. In the two assays the increase was concentration related and reached, following exposure to 1500 μg per plate of N-(3-chlorophenyl)-N′-(3-chloropropyl)-piperazine, 6.4 and 5.1 times the control value.

Compound | genotoxicity [1] | genotoxic activity (conclusion) ([2]; bacterial system, following metabolic activation (S9 mix)) | increase in reversion to prototrophy ([2]; strain TA1535, in the presence of S9 mix (rat liver microsomal fraction), 1500 μg per plate, two independent assays, DMSO negative control)
2,2-Dichloroethylamine | known genotoxic substances |  | 
ClCCCN1CCN(c2cccc(Cl)c2)CC1 [N-(3-chlorophenyl)-N′-(3-chloropropyl)-piperazine] |  | exhibited genotoxic activity | 6.4 times the control value and 5.1 times the control value
